Where “and” joins values, the source holds several entries; their conditions need not be identical. Equal entries are not always repeated. Inconclusive results and toxic doses are left out. The calls were made as follows: active = survival T/C of 150% or more; inactive = T/C below 125% in these data.
Tested on: P388 leukemia ip, CD2F1 mice, survival T/C
Experiment: NCI In Vivo Anticancer Drug Screen. Data for tumor model P388 Leukemia (intraperitoneal) in CD2F1 (CDF1) mice
Conditions: endpoint: median survival time, higher = longer survival
Procedure, shortened: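 Mice carrying the transplanted tumor received test compound or vehicle. Survival was recorded in each group, and the value is the treated-group measurement divided by that of the vehicle-treated control group.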

[1] = dose: 60.0 mg/kg/injection, schedule: Q01DX005 (ip), vehicle: saline with Tween-80
[2] = dose: 120.0 mg/kg/injection, schedule: Q01DX005 (ip), vehicle: saline with Tween-80
[3] = dose: 240.0 mg/kg/injection, schedule: Q01DX005 (ip), vehicle: saline with Tween-80
[4] = dose: 100.0 mg/kg/injection, schedule: Q04DX003 (ip), vehicle: saline
[5] = dose: 400.0 mg/kg/injection, schedule: Q04DX003 (ip), vehicle: saline
[6] = dose: 50.0 mg/kg/injection, schedule: Q01DX005 (ip), vehicle: saline with Tween-80
[7] = dose: 100.0 mg/kg/injection, schedule: Q01DX005 (ip), vehicle: saline with Tween-80
[8] = dose: 200.0 mg/kg/injection, schedule: Q01DX005 (ip), vehicle: saline with Tween-80
[9] = dose: 25.0 mg/kg/injection, schedule: Q01DX009 (ip), vehicle: saline with Tween-80
[10] = dose: 50.0 mg/kg/injection, schedule: Q01DX005 (ip), vehicle: Klucel (hydroxypropylcellulose) (HPC)
[11] = dose: 100.0 mg/kg/injection, schedule: Q01DX005 (ip), vehicle: Klucel (hydroxypropylcellulose) (HPC)
[12] = dose: 200.0 mg/kg/injection, schedule: Q01DX005 (ip), vehicle: Klucel (hydroxypropylcellulose) (HPC)
[13] = dose: 50.0 mg/kg/injection, schedule: Q01DX009 (ip), vehicle: saline with Tween-80
[14] = dose: 100.0 mg/kg/injection, schedule: Q01DX009 (ip), vehicle: saline with Tween-80
[15] = dose: 200.0 mg/kg/injection, schedule: Q01DX009 (ip), vehicle: saline with Tween-80

Measured: T/C

C=Cc1c2[n-]c(c1C)/C=C1\[N-]/C(=C3\c4[n-]c(c(C)c4C(=O)C3C(=O)O)/C=c3\[n-]/c(c(C)c3CC)=C\2)C(CCC(=O)O)C1C.[Pt+4] (centres undefined)
inactive: dose: 50.0 mg/kg/injection, schedule: Q04DX002 (ip), vehicle: saline 100 % of control | dose: 100.0 mg/kg/injection, schedule: Q04DX002 (ip), vehicle: saline 90 % of control | dose: 200.0 mg/kg/injection, schedule: Q04DX002 (ip), vehicle: saline 88 % of control

COc1ccc(C2=C(Cl)C(=O)N(c3ccccc3)C(=O)C2(Cl)Cl)cc1
inactive: dose: 100.0 mg/kg/injection, schedule: Q04DX002 (ip), vehicle: Klucel (hydroxypropylcellulose) (HPC) 103 % of control | dose: 200.0 mg/kg/injection, schedule: Q04DX002 (ip), vehicle: Klucel (hydroxypropylcellulose) (HPC) 107 % of control | dose: 400.0 mg/kg/injection, schedule: Q04DX002 (ip), vehicle: Klucel (hydroxypropylcellulose) (HPC) 107 % of control

COc1ccc(/C=C/C(=O)C(C)(CN(C)C)CN(C)C)cc1
inactive: dose: 30.0 mg/kg/injection, schedule: Q01DX005 (ip), vehicle: saline 123 % of control | dose: 120.0 mg/kg/injection, schedule: Q01DX005 (ip), vehicle: saline 121 % of control

CC(C)c1c(OC(=O)N(C)C)c(C#N)c2[nH]c3ccccc3n2c1=O
inactive: [1] 109 % of control | [2] 94 % of control | [3] 86 % of control

N/C=N/O
active: dose: 400.0 mg/kg/injection, schedule: Q01DX009 (ip), vehicle: saline 161 % of control
inactive: dose: 25.0 mg/kg/injection, schedule: Q01DX009 (ip), vehicle: saline 101 % of control | dose: 50.0 mg/kg/injection, schedule: Q01DX009 (ip), vehicle: saline 101 % of control | dose: 100.0 mg/kg/injection, schedule: Q01DX009 (ip), vehicle: saline 111 % of control and 122 % of control | dose: 174.0 mg/kg/injection, schedule: Q01DX009 (ip), vehicle: saline 123 % of control | dose: 260.0 mg/kg/injection, schedule: Q01DX009 (ip), vehicle: saline 90 % of control

O=C(O)C1CSC2(CCCC2)N1 (centres undefined)
inactive: [4] 101 % of control | dose: 200.0 mg/kg/injection, schedule: Q04DX003 (ip), vehicle: saline 98 % of control | [5] 98 % of control

CCOC(=Nc1ccc(F)cc1)SC(c1ccccc1)(c1ccccc1)c1ccccc1
inactive: [6] 110 % of control | [7] 104 % of control | [8] 99 % of control

Cc1cc2nc(N(C)C)cc(N(C)C)c2cc1C
inactive: dose: 12.5 mg/kg/injection, schedule: Q01DX009 (ip), vehicle: Klucel (hydroxypropylcellulose) (HPC) 115 % of control | dose: 25.0 mg/kg/injection, schedule: Q01DX009 (ip), vehicle: Klucel (hydroxypropylcellulose) (HPC) 109 % of control | dose: 50.0 mg/kg/injection, schedule: Q01DX009 (ip), vehicle: Klucel (hydroxypropylcellulose) (HPC) 100 % of control and 105 % of control

COc1ccc(OC)c(C(=O)c2cccc(C(=O)c3cc(OC)ccc3OC)n2)c1
inactive: [1] 99 % of control | [2] 109 % of control | [3] 119 % of control

Cc1ccc(N=C(N)N/N=C/c2ccc3c(c2)Cc2ccccc2-3)cc1
inactive: dose: 25.0 mg/kg/injection, schedule: Q04DX002 (ip), vehicle: saline with Tween-80 106 % of control | dose: 50.0 mg/kg/injection, schedule: Q04DX002 (ip), vehicle: saline with Tween-80 107 % of control

CCSc1ccc([N+](=O)[O-])c2c(SCC)c3ccccc3nc12
inactive: [6] 92 % of control | [7] 95 % of control | [8] 99 % of control

COC1OC2COC(c3ccc(Cl)cc3)OC2C2OC12 (centres undefined)
inactive: dose: 7.5 mg/kg/injection, schedule: Q04DX002 (ip), vehicle: saline with Tween-80 102 % of control | dose: 15.0 mg/kg/injection, schedule: Q04DX002 (ip), vehicle: saline with Tween-80 101 % of control | dose: 30.0 mg/kg/injection, schedule: Q04DX002 (ip), vehicle: saline with Tween-80 102 % of control

Cc1cc2c(c(O)c1O)/C(=C/N=NC(N)=S)C(Cl)=N2
inactive: dose: 100.0 mg/kg/injection, schedule: Q01DX001 (ip), vehicle: Klucel (hydroxypropylcellulose) (HPC) 101 % of control | dose: 200.0 mg/kg/injection, schedule: Q01DX001 (ip), vehicle: Klucel (hydroxypropylcellulose) (HPC) 102 % of control | dose: 400.0 mg/kg/injection, schedule: Q01DX001 (ip), vehicle: Klucel (hydroxypropylcellulose) (HPC) 100 % of control

CC1(C)COC(c2cccc3c2C2C=CC3O2)=N1 (centres undefined)
inactive: [1] 92 % of control | [2] 97 % of control | [3] 108 % of control

CC1(C(O)CO)C=C2CCC3C(C)(C)C(O)CCC3(C)C2CC1 (centres undefined)
inactive: dose: 2.25 mg/kg/injection, schedule: Q01DX009 (ip), vehicle: Klucel (hydroxypropylcellulose) (HPC) 108 % of control | dose: 4.5 mg/kg/injection, schedule: Q01DX009 (ip), vehicle: Klucel (hydroxypropylcellulose) (HPC) 103 % of control | dose: 9.0 mg/kg/injection, schedule: Q01DX009 (ip), vehicle: Klucel (hydroxypropylcellulose) (HPC) 103 % of control | dose: 18.0 mg/kg/injection, schedule: Q01DX009 (ip), vehicle: Klucel (hydroxypropylcellulose) (HPC) 93 % of control

CC(C)(C)N1CC1CNC(=O)C(=O)NCC1CN1C(C)(C)C (centres undefined)
active: dose: 3.12 mg/kg/injection, schedule: Q01DX009 (ip), vehicle: saline with Tween-80 165 % of control | dose: 6.25 mg/kg/injection, schedule: Q01DX009 (ip), vehicle: saline with Tween-80 194 % of control and 203 % of control | dose: 12.5 mg/kg/injection, schedule: Q01DX009 (ip), vehicle: saline with Tween-80 256 % of control and 277 % of control | [9] 177 % of control

Cc1cc2nc(C)nn2c(C)n1
inactive: dose: 25.0 mg/kg/injection, schedule: Q04DX003 (ip), vehicle: saline 104 % of control | dose: 50.0 mg/kg/injection, schedule: Q04DX003 (ip), vehicle: saline 96 % of control | [4] 111 % of control and 88 % of control | [5] 88 % of control

O=C(O)CNc1ccccc1Br
inactive: [10] 105 % of control | [11] 97 % of control | [12] 96 % of control

C=CC(=O)N/C(N)=N\C(N)=O
inactive: dose: 3.0 mg/kg/injection, schedule: Q01DX005 (ip), vehicle: saline 110 % of control | dose: 6.0 mg/kg/injection, schedule: Q01DX005 (ip), vehicle: saline 112 % of control | dose: 12.0 mg/kg/injection, schedule: Q01DX005 (ip), vehicle: saline 113 % of control | dose: 12.5 mg/kg/injection, schedule: Q01DX005 (ip), vehicle: saline 113 % of control

CC(=O)NCCSSCc1ccccc1CS(=O)O
inactive: dose: 25.0 mg/kg/injection, schedule: Q01DX005 (ip), vehicle: suspension in saline 104 % of control | dose: 50.0 mg/kg/injection, schedule: Q01DX005 (ip), vehicle: suspension in saline 106 % of control | dose: 100.0 mg/kg/injection, schedule: Q01DX005 (ip), vehicle: suspension in saline 113 % of control

CC(/C=C/c1ccccc1)=Nc1ccc(Cl)cc1
inactive: [9] 100 % of control and 107 % of control | [13] 100 % of control and 101 % of control and 107 % of control | [14] 100 % of control and 101 % of control | [15] 98 % of control

CS(=O)(=O)OCC(O)C(O)C(OS(C)(=O)=O)C(O)COS(C)(=O)=O (centres undefined)
inactive: dose: 50.0 mg/kg/injection, schedule: Q04DX003 (ip), vehicle: Klucel (hydroxypropylcellulose) (HPC) 100 % of control | dose: 100.0 mg/kg/injection, schedule: Q04DX003 (ip), vehicle: Klucel (hydroxypropylcellulose) (HPC) 100 % of control

Cc1cc(C(O)(C(F)(F)F)C(F)(F)F)c2c(c1)C(C(F)(F)F)(C(F)(F)F)OC(C)(C)N2
inactive: [10] 100 % of control | [11] 100 % of control | [12] 101 % of control

O=C1/C(=C\c2ccc([N+](=O)[O-])cc2)CS(=O)(=O)C/C1=C/c1ccc([N+](=O)[O-])cc1
inactive: [9] 95 % of control | [13] 94 % of control | [14] 105 % of control | [15] 116 % of control

O=C(/N=C1\N=Nc2nc(CC(=O)c3cccc4ccccc34)c(O)n21)Nc1ccc(Cl)cc1
inactive: [6] 96 % of control | [7] 103 % of control | [8] 104 % of control

CSCc1cccc(Cl)c1N
inactive: [9] 102 % of control | [13] 106 % of control | [14] 106 % of control

— PubChem BioAssay AID330 (DTP/NCI, 2004)
